Data as given in article PMC9530963, “A cathelicidin antimicrobial peptide from Hydrophis cyanocinctus inhibits Zika virus infection by downregulating expression of a viral entry factor” (The Journal of Biological Chemistry, 2022).

What was measured:
[1] = parameters: method as in PMID 26013823; details: cited from earlier work
AXL [2] = test: AXL level in A549 cells (Western blot, immunofluorescence); assay type: cell-based, Homo sapiens; details: 1.25, 2.5, and 5 μM, 24 h, with and without ZIKV challenge
Method: (§1) Figure 4 Hc-CATH downregulates AXL in A549 cell.A, schematic diagram of B and C. B, A549 cells were seeded in 24-well plates (5 × 10^4 cells/well) and cultured in DMEM containing 2% FBS. Hc-CATH (1.25, 2.5, and 5 μM) or same volume of PBS (peptide solvent) was added to cells and incubated at 37 °C for 24 h. The level of AXL was tested by Western blot. C, A549 cells were seeded in 8-well cover slip chambers (5 × 10^4 cells/well) and cultured in DMEM containing 2% FBS. Hc-CATH (1.25, 2.5, and 5 μM) or PBS was added to cells and incubated at 37 °C for 24 h. The level of AXL was tested by immunofluorescence staining. The scale bar represents 50 μm. D, schematic diagram of E and G. E and G, A549 cells were seeded in 24-well plates (5 × 10^4 cells/well) and cultured in DMEM containing 2% FBS. Hc-CATH (1.25, 2.5, and 5 μM) or PBS was added to cells and incubated at 37 °C for 2 h. Cells were washed with PBS and incubated with ZIKV (MOI = 1). After incubation at 37 °C for 2 h, cells were washed with PBS and cultured in DMEM containing 2% FBS.
(§2) The effect of Hc-CATH on AXL was further confirmed in A549 and U251 cells. A549 or U251 cells were incubated with Hc-CATH (1.25, 2.5, and 5 μM) or PBS at 37 °C for 24 h, and the level of AXL was detected by WB and IF, respectively. Upon ZIKV challenge, A549 or U251 cells were incubated with Hc-CATH (1.25, 2.5, and 5 μM) or PBS at 37 °C for 2 h. […]

ZIKV = test: Susceptibility of U251 cells to ZIKV (peptide pretreatment); assay type: cell-based, ZIKV strain PRVABC59; details: 1.25, 2.5, and 5 μM, 2 h before ZIKV MOI = 1; 24 h; Western blot
Method: as §1, with “Figure 5” for “Figure 4”, “in U251” for “in A549”, “B, U251” for “B, A549”, “C, U251” for “C, A549”, “of E–G. E–G, U251” for “of E and G. E and G, A549”
Vero, A549, or U251 cells were incubated with peptide or PBS at 37 °C for 2 h. […]
The effect of Hc-CATH on AXL was further confirmed in A549 and U251 cells. A549 or U251 cells were incubated with Hc-CATH (1.25, 2.5, and 5 μM) or PBS at 37 °C for 24 h, and the level of AXL was detected by WB and IF, respectively. […]

AXL [3] = test: AXL level in U251 cells (Western blot, immunofluorescence); assay type: cell-based, Homo sapiens; details: 1.25, 2.5, and 5 μM, 24 h, with and without ZIKV challenge
Method: as §1, with “Figure 5” for “Figure 4”, “in U251” for “in A549”, “B, U251” for “B, A549”, “C, U251” for “C, A549”, “of E–G. E–G, U251” for “of E and G. E and G, A549”
as §2

KFFKRLLKSVRRAVKKFRKKPRLIGLSTLL [Hc-CATH, cathelicidin antimicrobial peptide identified from the sea snake Hydrophis cyanocinctus]
anti-inflammatory activity [1]: potent anti-inflammatory activity | level of AXL in A549 cells (AXL [2]): effectively decreased the level of AXL | susceptibility of U251 cells to ZIKV (NS3 protein) (ZIKV): decreased the susceptibility | level of AXL in U251 cells (AXL [3]): effectively decreased the level of AXL
